pIC50: −log10 of the molar value. ≈ marks a conversion by molar mass, not a printed value. Structures can show the parent of a compound that is named as a salt. Where two headings read alike, the source gives them in different places.
Legend:
[1] = Kinetic solubility, laser nephelometry; format: physicochemical; conditions: for solubility kinetic: aqueous phosphate buffer, aqueous buffer, kinetic from dmso stock, phosphate buffer pH 7.4, nephelometry, mean value and range, read-out: Sexp., kin., pH 7.4 (kinetic solubility)
Method: The kinetic solubility was determined using laser nephelometry. A stock solution based on the results of the thermodynamic solubility measurement of the test compounds in DMSO was prepared. The stock solution was diluted with DMSO to get different concentrations. The DMSO dilutions (5 µL) were placed on a 96-well plate filled with aqueous phosphate buffer pH 7.4 (195 µL, same buffer as for thermodynamic solubility). Two dilution series of the stock solution were measured. A blank was determined for every measurement. The well plate was scanned by a nephelometer (Nephelostar Plus, BMG Labtech, Ortenberg, Germany). Precipitated particles scatter the laser light which is detected by the nephelometer. The intensity of the scattered light is assumed to be proportional to the particle concentration in the suspension. The different concentrations were plotted versus the intensities measured by the nephelometer. The resulting kick-off curves led directly to the kinetic solubility by determining the intersection of the linear straight line paralleling the x axis and the linear slope.

RnDYRK1A-kd = RnDYRK1A-kd (Rattus norvegicus, UniProt Q63470); test: ADP-Glo luminescent kinase assay; format: biochemical, Rn; conditions: for DYRK1A inhibitory activity (in words): ADP-Glo assay
Method: (§1) Protein kinase assays with the derivatives 11–15 were carried out by radiometric methods using protein kinases, reagents, and conditions as described before. The DYRK1A inhibitory activities of the Mannich bases 16, 27 and 28 were assayed in 384-well plates using the ADP-GloTM assay kit (Promega, Madison, WI) according to the recommendations of the manufacturer. This assay is a luminescent ADP detection assay that provides a homogeneous and high-throughput screening method to measure kinase activity by quantifying the amount of ADP produced during a kinase reaction. Briefly, the reactions were carried out in a final volume of 6 µL for 30 min at 30 °C in appropriate kinase buffer, with either protein or peptide as substrate in the presence of 10 µM ATP. After that, 6 µL of ADP-GloTM Kinase Reagent was added to stop the kinase reaction. After an incubation time of 50 min at room temperature (rt), 12 µL of Kinase Detection Reagent was added for one hour at rt. The transmitted signal was measured using the Envision (PerkinElmer, Waltham, MA) microplate luminometer and expressed in Relative Light Units (RLU). In order to determine the half maximal inhibitory concentration (IC50), the assays were performed in duplicate in the absence or presence of increasing doses of the tested compounds. Kinase activities are expressed in % of maximal activity, i.e. measured in the absence of inhibitor. The peptide substrate was obtained from Proteogenix (Schiltigheim, France). RnDYRK1A-kd was assayed in buffer A with 0.033 μg/µl of the peptide […] as substrate (buffer A: 10 mM MgCl2, 1 mM EGTA, 1 mM DTT, 25 mM Tris-HCl pH 7.5, 50 µg/mL heparin). All data points for construction of dose response curves were recorded in triplicate. Typically, the standard deviation of single data points was below 10%.

[2] = Thermodynamic solubility, shake-flask method with HPLC; format: physicochemical; conditions: aqueous phosphate buffer, thermodynamic from solid, phosphate buffer pH 7.4, shake-flask, 25 °C, mean value and range, read-out: Sexp., therm., pH 7.4 (thermodynamic solubility)
Method: For determination of thermodynamic solubility an aqueous phosphate buffer at pH 7.4 with sodium chloride was used. The buffer was prepared by dissolving Na2HPO4 × 2 H2O (298 mg), KH2PO4 (19 mg) and NaCl (800 mg) in water (100 mL). The pH was adjusted to 7.4 by addition of aq. hydrochloric acid (3 mol/L). The thermodynamic solubility was determined using a shake-flask method with quantification by a buffer-HPLC method. […] The mixtures were shaken at 25 °C and 400 rpm for 24 and 48 h (IKA KS 3000 ic control, IKA-Werke, Staufen, Germany). For each time (24 and 48 h) two independent measurements at two different detection wavelengths (254 and 280 nm) were determined. After 24 h and 48 h the mixtures were inspected for remaining solids. The concentrations in the resulting saturated solutions were quantified by isocratic HPLC with external standard calibration. […] For calibration, a stock solution of the test compounds in DMSO was prepared and diluted with DMSO to suitable concentrations. The AUC at the wavelength 254 nm and 280 nm was used for quantification.

MAO-A = system: MAO-A; parameters: method as in PMID 15010457, PMID 20981014; conditions: cited from earlier work
DYRK1A [3] = target: T1, DYRK1A (Homo sapiens, UniProt Q13627); parameters: method as in PMID 25264830, PMID 27766861; conditions: cited from earlier work
DYRK1B = system: DYRK1B; parameters: method as in PMID 25264830, PMID 27766861; conditions: cited from earlier work
CDK1 [4] = system: CDK1; parameters: method as in Falke et al. [34]; conditions: radiometric; ref Falke et al. [34]; cited from earlier work
GSK-3 = test: Protein kinase assay, radiometric; format: biochemical; conditions: dose response curves, triplicates
Method: (§2) The new compounds 11–16 were tested on an array of protein kinases of the CMGC family. First, the kinases were incubated with 10 µM solutions of the test compounds and the residual activities compared to controls were measured. The IC50 values of promising compounds were then determined from concentration-response curves (Table 1).
as §1

DYRK1A [5] = target: T1, DYRK1A; test: Protein kinase assay, radiometric; format: biochemical; conditions: dose response curves, triplicates
Method: as §2, §1

CDK5 = CDK5 (Homo sapiens, UniProt Q00535); test: Protein kinase assay, radiometric; format: biochemical; conditions: dose response curves, triplicates
Sequence of CDK5 (Q00535 whole entry, species assumed): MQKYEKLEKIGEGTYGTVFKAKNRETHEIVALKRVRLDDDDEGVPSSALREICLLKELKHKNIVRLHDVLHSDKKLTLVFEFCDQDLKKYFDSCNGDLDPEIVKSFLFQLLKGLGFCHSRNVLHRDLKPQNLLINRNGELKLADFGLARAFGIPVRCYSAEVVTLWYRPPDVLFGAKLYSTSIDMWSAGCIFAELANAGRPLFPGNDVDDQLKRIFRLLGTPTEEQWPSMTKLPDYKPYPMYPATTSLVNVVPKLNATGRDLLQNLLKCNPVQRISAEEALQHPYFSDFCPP
Sequence of CDK5 (Q15078 99-307 partner limits assumed, species assumed): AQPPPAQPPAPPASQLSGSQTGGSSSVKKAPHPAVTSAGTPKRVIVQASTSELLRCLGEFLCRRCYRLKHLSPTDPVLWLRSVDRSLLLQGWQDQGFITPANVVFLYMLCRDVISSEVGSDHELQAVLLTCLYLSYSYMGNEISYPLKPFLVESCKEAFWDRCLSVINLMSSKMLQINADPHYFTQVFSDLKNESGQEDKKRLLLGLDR
Method: as §2, §1

CLK1 = CLK1 (Mus musculus, UniProt P22518); test: Protein kinase assay, radiometric; format: biochemical; conditions: dose response curves, triplicates
Sequence of CLK1 (P22518 whole entry): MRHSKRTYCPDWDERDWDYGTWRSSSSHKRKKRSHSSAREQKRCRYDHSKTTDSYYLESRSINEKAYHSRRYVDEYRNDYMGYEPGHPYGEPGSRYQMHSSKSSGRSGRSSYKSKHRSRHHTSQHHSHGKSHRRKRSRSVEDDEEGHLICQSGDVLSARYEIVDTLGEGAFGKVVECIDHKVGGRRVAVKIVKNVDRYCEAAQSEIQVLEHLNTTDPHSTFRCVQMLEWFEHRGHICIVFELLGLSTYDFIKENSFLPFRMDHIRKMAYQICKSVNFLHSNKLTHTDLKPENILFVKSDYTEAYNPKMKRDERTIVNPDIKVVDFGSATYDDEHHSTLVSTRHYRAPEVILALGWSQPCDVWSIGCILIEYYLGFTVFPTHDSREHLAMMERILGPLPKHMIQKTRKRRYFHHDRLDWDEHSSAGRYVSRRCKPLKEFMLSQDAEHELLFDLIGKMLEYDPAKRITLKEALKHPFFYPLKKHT
Method: as §2, §1

CK1 = test: Protein kinase assay, radiometric; format: biochemical; conditions: dose response curves, triplicates
Method: as §2, §1

CDK2 = CDK2 (Homo sapiens, UniProt P24941); test: Protein kinase assay, radiometric; format: biochemical; conditions: dose response curves, triplicates
Method: as §2, §1

CDK9 = CDK9 (Homo sapiens, UniProt P50750); test: Protein kinase assay, radiometric; format: biochemical; conditions: dose response curves, triplicates
Sequence of CDK9 (P50750 whole entry, species assumed): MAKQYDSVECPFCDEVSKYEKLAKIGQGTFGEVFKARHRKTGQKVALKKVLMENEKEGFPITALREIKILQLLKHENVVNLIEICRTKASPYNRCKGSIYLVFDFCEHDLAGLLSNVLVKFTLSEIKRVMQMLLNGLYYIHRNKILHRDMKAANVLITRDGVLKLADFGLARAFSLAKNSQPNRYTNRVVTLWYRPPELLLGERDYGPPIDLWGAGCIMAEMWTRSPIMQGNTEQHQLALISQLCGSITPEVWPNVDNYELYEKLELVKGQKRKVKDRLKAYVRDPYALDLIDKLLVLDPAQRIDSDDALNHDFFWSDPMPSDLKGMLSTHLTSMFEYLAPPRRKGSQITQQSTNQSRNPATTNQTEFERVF
Sequence of CDK9 (O60563 whole entry partner, species assumed): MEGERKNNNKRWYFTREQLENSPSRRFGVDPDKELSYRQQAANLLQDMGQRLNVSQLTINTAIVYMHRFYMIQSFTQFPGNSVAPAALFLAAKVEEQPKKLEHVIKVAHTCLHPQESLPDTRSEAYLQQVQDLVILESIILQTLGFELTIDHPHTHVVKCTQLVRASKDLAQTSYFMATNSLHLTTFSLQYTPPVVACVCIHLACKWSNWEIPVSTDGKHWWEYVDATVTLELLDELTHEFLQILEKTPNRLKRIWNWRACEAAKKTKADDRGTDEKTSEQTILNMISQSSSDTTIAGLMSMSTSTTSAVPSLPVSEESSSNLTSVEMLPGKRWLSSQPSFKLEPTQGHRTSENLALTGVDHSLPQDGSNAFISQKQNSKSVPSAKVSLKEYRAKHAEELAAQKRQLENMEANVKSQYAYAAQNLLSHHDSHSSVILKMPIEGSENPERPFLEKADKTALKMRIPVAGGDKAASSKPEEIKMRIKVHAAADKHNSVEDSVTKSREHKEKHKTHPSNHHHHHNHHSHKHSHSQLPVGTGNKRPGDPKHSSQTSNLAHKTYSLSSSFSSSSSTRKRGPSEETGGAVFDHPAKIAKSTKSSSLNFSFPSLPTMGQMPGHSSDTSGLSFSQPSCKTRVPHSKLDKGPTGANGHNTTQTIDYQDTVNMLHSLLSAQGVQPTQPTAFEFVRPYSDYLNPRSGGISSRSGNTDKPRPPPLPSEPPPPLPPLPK
Method: as §2, §1

CDK1 [6] = test: Protein kinase assay, radiometric; format: biochemical; conditions: dose response curves, triplicates
Method: as §2, §1

Row | SMILES | pIC50 (GSK-3) | pIC50 (DYRK1A [5]) | pIC50 (CDK5) | pIC50 (CLK1) | pIC50 (CK1) | pIC50 (CDK2) | pIC50 (CDK9) | pIC50 (CDK1 [6]) | also measured
1 | O=C1c2c([nH]c3c(Cl)cccc23)CCC1CN1CCCCC1 (racemic) [compound 16, (R,S)-8-Chloro-3-(piperidin-1-ylmethyl)-1,2,3,9-tetrahydro-4H-carbazol-4-one hydrochloride] | – | – | – | – | – | – | – | – | solubility kinetic [1]: 2310 µM; DYRK1A inhibitory activity (in words) (RnDYRK1A-kd): complete loss of DYRK1A inhibitory activity; pIC50 (RnDYRK1A-kd; ADP-Glo assay kit, 10 µM ATP, read-out: IC50 DYRK1A): < 5.00; solubility thermodynamic [2]: 13600 µM
2 | O=C1c2c([nH]c3c(Cl)cccc23)CCC1CN1CCOCC1 (racemic) [compound 27, (R,S)-8-Chloro-3-(morpholinomethyl)-1,2,3,9-tetrahydro-4H-carbazol-4-one hydrochloride] | – | – | – | – | – | – | – | – | DYRK1A inhibitory activity (in words) (RnDYRK1A-kd): inactive
3 | CN(C)CC1CCc2[nH]c3c(Cl)cccc3c2C1=O (racemic) [compound 28, (R,S)-8-Chloro-3-[(dimethylamino)methyl]-1,2,3,9-tetrahydro-4H-carbazol-4-one hydrochloride] | – | – | – | – | – | – | – | – | DYRK1A inhibitory activity (in words) (RnDYRK1A-kd): inactive
4 | CCN1/C(=C/C(C)=O)Sc2ccc(O)cc21 [compound 4] | – | – | – | – | – | – | – | – | MAO-A inhibition (MAO-A): no MAO-A inhibition
5 | COC(=N)c1nc2ccc3ncnc(Nc4ccc(Cl)cc4Cl)c3c2s1 [compound 7] | – | – | – | – | – | – | – | – | Activity on DYRK1A (DYRK1A [3]): subnanomolar; Activity on DYRK1B (DYRK1B): subnanomolar
6 | O=C(O)c1nc2ccccc2c2[nH]c3c(I)cccc3c12 [compound 10, reference compound] | – | – | – | – | – | – | – | – | solubility kinetic [1]: 5.28 µM (≈ 2.05 µg/mL); solubility thermodynamic [2]: < 5 µM; pIC50 (CDK1 [4]): < 5.00
7 | O=c1ccccc2[nH]c3c(Cl)cccc3c12 [compound 11, 4-Chlorocyclohepta[b]indol-10(5H)-one] | < 5.00 | 6.70 | < 5.00 | 6.77 | < 5.00 | < 5.00 | < 5.00 | < 5.00 | solubility kinetic [1]: 26.1 µM (≈ 5.99 µg/mL); Improvement of kinetic solubility compared to 10 ([1]; phosphate buffer pH 7.4): fivefold improved solubility; solubility thermodynamic [2]: < 5 µM
8 | O=C1CCc2[nH]c3c(Cl)cccc3c21 [compound 12, 5-Chloro-3,4-dihydrocyclopenta[b]indol-1(2H)-one] | < 5.00 | 6.15 | < 5.00 | 6.05 | < 5.00 | < 5.00 | < 5.00 | < 5.00 | –
9 | O=C1CCCc2[nH]c3c(Cl)cccc3c21 [compound 13, 8-Chloro-1,2,3,9-tetrahydro-4H-carbazol-4-one] | 5.36 | 5.80 | 5.09 | 6.52 | < 5.00 | – | – | – | –
10 | O=C1NCCc2[nH]c3c(Cl)cccc3c21 [compound 14, 6-Chloro-2,3,4,5-tetrahydro-1H-pyrido[4,3-b]indol-1-one] | 5.57 | 6.72 | 6.09 | 6.92 | 5.44 | 5.77 | 6.06 | 5.92 | –
11 | O=C1NCCCc2[nH]c3c(Cl)cccc3c21 [compound 15, 7-Chloro-3,4,5,6-tetrahydroazepino[4,3-b]indol-1(2H)-one] | < 5.00 | 5.66 | 5.60 | 6.49 | 5.38 | 5.60 | 5.66 | 5.15 | –
